# Measured values published in ChEMBL document CHEMBL3390836, “Mannich- and LedererManasse-based analogues of the natural product S-(+)-curcuphenol as cancer proliferation and migration inhibitors” (Medchemcomm, 2012).
# How the values were obtained:
# [1] = tested on: BT-549; assay: Cytotoxicity against human BT549 cells assessed as cell growth at 10 uM after 48 hrs by SRB assay relative to control; format: functional; details: BT-549, 48 h, read-out: Activity
# [2] = tested on: SNB-19; assay: Cytotoxicity against human SNB19 cells assessed as cell growth at 10 uM after 48 hrs by SRB assay relative to control; format: functional; details: SNB-19, 48 h, read-out: Activity
# [3] = Cytotoxicity against human HCT15 cells assessed as cell growth at 10 uM after 48 hrs by SRB assay relative to control; format: functional; details: HCT-15, 48 h, read-out: Activity
# [4] = Cytotoxicity against human NCI-ADR-RES cells assessed as cell growth at 10^-6 M after 48 hrs by SRB assay relative to control; format: functional; details: read-out: Activity
# [5] = tested on: NCI-H460; assay: Cytotoxicity against human NCI-H460 cells assessed as cell growth at 10 uM after 48 hrs by SRB assay relative to control; format: functional; details: NCI-H460, 48 h, read-out: Activity
# [6] = tested on: K562; assay: Cytotoxicity against human K562 cells assessed as cell growth at 10 uM after 48 hrs by SRB assay relative to control; format: functional; details: K562, 48 h, read-out: Activity
# [7] = tested on: CAKI-1; assay: Cytotoxicity against human Caki1 cells after 48 hrs by SRB assay; format: functional; details: CAKI-1, 48 h; for CC50: read-out: LC50 (the source's name)
# [8] = tested on: RPMI-8226; assay: Cytotoxicity against human RPMI8226 cells assessed as cell growth at 10 uM after 48 hrs by SRB assay relative to control; format: functional; details: RPMI-8226, 48 h, read-out: Activity
# [9] = tested on: Malme-3M; assay: Cytotoxicity against human MALME-3M cells assessed as cell growth at 10 uM after 48 hrs by SRB assay relative to control; format: functional; details: read-out: Activity
# [10] = tested on: A498; assay: Cytotoxicity against human A498 cells after 48 hrs by SRB assay; format: functional; details: A498, 48 h; for CC50: read-out: LC50 (the source's name)
# [11] = Cytotoxicity against human OVCAR5 cells after 48 hrs by SRB assay; format: functional; details: OVCAR-5, 48 h; for CC50: read-out: LC50 (the source's name)
# [12] = tested on: ACHN; assay: Cytotoxicity against human ACHN cells assessed as cell growth at 10^-4 M after 48 hrs by SRB assay relative to control; format: functional; details: read-out: Activity
# [13] = tested on: MDA-MB-435; assay: Cytotoxicity against human MDA-MB-435 cells assessed as cell growth at 10 uM after 48 hrs by SRB assay relative to control; format: functional; details: MDA-MB-435, 48 h, read-out: Activity
# [14] = tested on: SN12C; assay: Cytotoxicity against human SN12C cells assessed as cell growth at 10 uM after 48 hrs by SRB assay relative to control; format: functional; details: read-out: Activity
# [15] = tested on: CAKI-1; assay: Cytotoxicity against human Caki1 cells assessed as cell growth at 10 uM after 48 hrs by SRB assay relative to control; format: functional; details: CAKI-1, 48 h, read-out: Activity
# [16] = tested on: TK-10; assay: Cytotoxicity against human TK10 cells assessed as cell growth at 10^-7 M after 48 hrs by SRB assay relative to control; format: functional; details: TK-10, 48 h, read-out: Activity
# [17] = Cytotoxicity against human OVCAR4 cells assessed as cell growth at 10 uM after 48 hrs by SRB assay relative to control; format: functional; details: OVCAR-4, 48 h, read-out: Activity
# [18] = tested on: NCI-H322M; assay: Cytotoxicity against human NCI-H322M cells assessed as cell growth at 10 uM after 48 hrs by SRB assay relative to control; format: functional; details: read-out: Activity
# [19] = tested on: TK-10; assay: Cytotoxicity against human TK10 cells assessed as cell growth at 10 uM after 48 hrs by SRB assay relative to control; format: functional; details: TK-10, 48 h, read-out: Activity
# [20] = Cytotoxicity against human OVCAR8 cells after 48 hrs by SRB assay; format: functional; details: OVCAR-8, 48 h; for CC50: read-out: LC50 (the source's name)
# [21] = tested on: U-251; assay: Cytotoxicity against human U251 cells assessed as cell growth at 10 uM after 48 hrs by SRB assay relative to control; format: functional; details: U-251, 48 h, read-out: Activity
# [22] = Cytotoxicity against human Hs 578T cells assessed as cell growth at 10 uM after 48 hrs by SRB assay relative to control; format: functional; details: read-out: Activity
# [23] = tested on: HCC 2998; assay: Cytotoxicity against human HCC2998 cells assessed as cell growth at 10 uM after 48 hrs by SRB assay relative to control; format: functional; details: HCC 2998, 48 h, read-out: Activity
# [24] = tested on: HOP-92; assay: Cytotoxicity against human HOP92 cells assessed as cell growth at 10 uM after 48 hrs by SRB assay relative to control; format: functional; details: HOP-92, 48 h, read-out: Activity
# [25] = tested on: HOP-62; assay: Cytotoxicity against human HOP62 cells assessed as cell growth at 10^-7 M after 48 hrs by SRB assay relative to control; format: functional; details: HOP-62, 48 h, read-out: Activity
# [26] = tested on: MDA-MB-231; assay: Antimigratory activity against human MDA-MB-231 cells after 24 hrs by wound-healing assay; format: functional, cell-based; details: MDA-MB-231, 24 h
# [27] = tested on: SF-268; assay: Cytotoxicity against human SF268 cells assessed as cell growth at 10^-7 M after 48 hrs by SRB assay relative to control; format: functional; details: SF-268, 48 h, read-out: Activity
# [28] = Cytotoxicity against human OVCAR8 cells assessed as cell growth at 10 uM after 48 hrs by SRB assay relative to control; format: functional; details: OVCAR-8, 48 h, read-out: Activity
# [29] = tested on: MDA-MB-231; assay: Cytotoxicity against human MDA-MB-231 cells assessed as growth inhibition after 24 hrs by MTT assay; format: cell-based; details: MDA-MB-231, 24 h
# [30] = tested on: HOP-62; assay: Cytotoxicity against human HOP62 cells assessed as cell growth at 10 uM after 48 hrs by SRB assay relative to control; format: functional; details: HOP-62, 48 h, read-out: Activity
# [31] = tested on: NCI-H522; assay: Cytotoxicity against human NCI-H522 cells assessed as cell growth at 10 uM after 48 hrs by SRB assay relative to control; format: functional; details: NCI-H522, 48 h, read-out: Activity
# [32] = Cytotoxicity against human PC3 cells assessed as cell growth at 10 uM after 48 hrs by SRB assay relative to control; format: functional; details: PC-3, 48 h, read-out: Activity
# [33] = Cytotoxicity against human OVCAR5 cells assessed as cell growth at 10 uM after 48 hrs by SRB assay relative to control; format: functional; details: OVCAR-5, 48 h, read-out: Activity
# [34] = Cytotoxicity against human UACC257 cells assessed as cell growth at 10 uM after 48 hrs by SRB assay relative to control; format: functional; details: UACC-257, 48 h, read-out: Activity
# [35] = tested on: SF-268; assay: Cytotoxicity against human SF268 cells assessed as cell growth at 10 uM after 48 hrs by SRB assay relative to control; format: functional; details: SF-268, 48 h, read-out: Activity
# [36] = tested on: SR; assay: Cytotoxicity against human SR cells assessed as cell growth at 10 uM after 48 hrs by SRB assay relative to control; format: functional; details: read-out: Activity
# [37] = tested on: DU-145; assay: Cytotoxicity against human DU145 cells assessed as cell growth at 10 uM after 48 hrs by SRB assay relative to control; format: functional; details: DU-145, 48 h, read-out: Activity
smiles,measurement,setting,value
COc1ccc(CCN2COc3c([C@@H](C)CCC=C(C)C)ccc(C)c3C2)cc1OC,growth at 10 µM,[1],87.9%
same,growth at 10 µM,[2],67%
same,growth at 10 µM,[3],2%
same,growth at 1 µM,[4],96%
same,growth at 10 µM,[5],-58%
same,growth at 10 µM,[6],13.1%
same,GI50,[7],2.73 µM
same,TGI,[7],12.1 µM
same,CC50,[7],41.3 µM
same,growth at 10 µM,[8],-10%
same,growth at 10 µM,[9],-78%
same,GI50,[10],1.96 µM
same,TGI,[10],11.9 µM
same,CC50,[10],37.1 µM
same,GI50,[11],8.53 µM
same,TGI,[11],20.8 µM
same,CC50,[11],45.6 µM
same,growth at 100 µM,[12],-92%
same,growth at 10 µM,[13],3%
same,growth at 10 µM,[14],15%
same,growth at 10 µM,[15],8%
same,growth at 0.1 µM,[16],79%
same,growth at 10 µM,[17],11%
same,growth at 10 µM,[18],5%
same,growth at 10 µM,[19],-26%
same,GI50,[20],4.21 µM
same,TGI,[20],20.2 µM
same,CC50,[20],89.5 µM
same,growth at 10 µM,[21],-47%
same,growth at 10 µM,[22],21%
same,growth at 10 µM,[23],-99%
same,growth at 10 µM,[24],-1.29%
same,growth at 0.1 µM,[25],96%
same,IC50,[26],9.5 µM
same,growth at 0.1 µM,[27],79%
same,growth at 10 µM,[28],24%
same,IC50,[29],> 20 µM
same,growth at 10 µM,[30],-76%
same,growth at 10 µM,[31],64.7%
same,growth at 10 µM,[32],-25%
same,growth at 10 µM,[33],47%
same,growth at 10 µM,[34],3%
CC(C)=CCC[C@H](C)c1ccc(C)c2c1OCN(CC1CCNCC1)C2,growth at 10 µM,[1],55.8%
same,growth at 10 µM,[2],73%
same,growth at 10 µM,[3],39.8%
same,growth at 1 µM,[4],102%
same,growth at 10 µM,[5],24.6%
same,growth at 10 µM,[6],0.57%
same,GI50,[7],17.7 µM
same,TGI,[7],36.8 µM
same,CC50,[7],76.3 µM
same,growth at 10 µM,[8],23.7%
same,growth at 10 µM,[9],90%
same,GI50,[10],12.3 µM
same,TGI,[10],26 µM
same,CC50,[10],55 µM
same,GI50,[11],14.3 µM
same,TGI,[11],28.8 µM
same,CC50,[11],57.7 µM
same,growth at 100 µM,[12],-89%
same,growth at 10 µM,[35],93%
same,growth at 10 µM,[13],14.7%
same,growth at 10 µM,[14],47%
same,growth at 10 µM,[15],80.2%
same,growth at 0.1 µM,[16],113%
same,growth at 10 µM,[17],86%
same,growth at 10 µM,[18],98%
same,growth at 10 µM,[19],75%
same,GI50,[20],18.4 µM
same,TGI,[20],34.5 µM
same,CC50,[20],64.6 µM
same,growth at 10 µM,[21],-13%
same,growth at 10 µM,[22],64.3%
same,growth at 10 µM,[23],-82.1%
same,growth at 10 µM,[36],-8.52%
same,growth at 10 µM,[37],93.9%
same,growth at 10 µM,[24],12.3%
same,growth at 0.1 µM,[25],94%
same,IC50,[26],8.1 µM
same,growth at 0.1 µM,[27],99%
same,growth at 10 µM,[28],75.3%
same,IC50,[29],> 20 µM
same,growth at 10 µM,[30],80%
same,growth at 10 µM,[32],59.4%
same,growth at 10 µM,[33],76%
same,growth at 10 µM,[34],24.6%
CC(C)=CCC[C@H](C)c1ccc(C)c(CNCC2CCNCC2)c1O,growth at 10 µM,[2],84%
same,growth at 10 µM,[3],79%
same,growth at 1 µM,[4],95%
same,growth at 10 µM,[5],54.7%
same,growth at 10 µM,[6],2.65%
same,GI50,[7],4.62 µM
same,TGI,[7],13.4 µM
same,CC50,[7],> 25 µM
same,growth at 10 µM,[8],61.7%
same,growth at 10 µM,[9],88%
same,GI50,[10],12.1 µM
same,TGI,[10],> 25 µM
same,CC50,[10],> 25 µM
same,GI50,[11],9.56 µM
same,TGI,[11],> 25 µM
same,CC50,[11],> 25 µM
same,growth at 100 µM,[12],-34%
same,growth at 10 µM,[35],87.7%
same,growth at 10 µM,[13],13.9%
same,growth at 10 µM,[14],78%
same,growth at 10 µM,[15],71.8%
same,growth at 0.1 µM,[16],92%
same,growth at 10 µM,[17],88%
same,growth at 10 µM,[18],80%
same,growth at 10 µM,[19],89.4%
same,GI50,[20],4.35 µM
same,TGI,[20],9.66 µM
same,CC50,[20],21.5 µM
same,growth at 10 µM,[21],57%
same,growth at 10 µM,[22],71%
same,growth at 10 µM,[23],-3.94%
same,growth at 10 µM,[36],0.23%
same,growth at 10 µM,[37],91.2%
same,growth at 0.1 µM,[25],95%
same,IC50,[26],> 20 µM
same,growth at 0.1 µM,[27],97%
same,growth at 10 µM,[28],85%
same,IC50,[29],> 20 µM
same,growth at 10 µM,[30],84%
same,growth at 10 µM,[31],86.8%
same,growth at 10 µM,[32],85%
same,growth at 10 µM,[33],82%
same,growth at 10 µM,[34],64.2%
